Earlier results on one substance are cited in patent publication US6043366A (priority 1997, dated 2000).

One data set relates to LC 132 receptor. The following applies: cells in culture.

Turning to “OFQ: seventeen amino-acid-long peptide (F-G-G-F-T-G-A-R-K-S-A-R-K-L-A-N-Q), isolated from rat brain, natural ligand to the G-protein coupled receptor OFQ-R (FGGFTGARKSARKLANQ; Nociceptin; UniProt Q13519 130-146, looked up)”, the “adenylate cyclase in CHO(LC 132+) cells” value with LC 132 receptor is “inhibits adenylate cyclase”. In addition, the hyperalgesia entry with mice (administered intra-cerebroventricularly to mice) is reported as “induces hyperalgesia”. In addition, in the data set on mice (injected intra-cerebroventricularly in mice), the locomotive activity entry is given as “slowed down locomotive activity”.
